Tests used:
Type in all cases: in vivo, human
[1] = Physical, behavioral and social skills of patient with cerebrospinal folate deficiency (case report); details: patient Example 2; after treatment
[2] = Cerebrospinal folate levels in patient with cerebrospinal folate deficiency (case report); details: patient Example 2; folinic acid 5 mg twice per day; within approximately four months; rose from 32 L; preferred range 40-128
Description: Example 1 was tested for cerebrospinal folate deficiency approximately four months after Example 2's testing. […] Studies have shown that the earlier the anemias associated with cerebrospinal folate deficiency are addressed, the better the adversely impacted individual can overcome more long-term effects of the associated folate deficiency.
After Example 2's diagnosis, Example 2 was placed on 5-methyltetrahydrofolate in the form of folinic acid (5 mg twice per day).

[3] = Hematological response (reticulocytes) in hypothyroid infant patient (case report); details: patient Example 1; additional nutritional supplement containing 2 mcg of vitamin B12
Source text: Example 1 and Example 2 received different nutritional supplementation with respect to vitamin B12. Although Example 2 did receive the same infant milk formula that Example 1 received, which infant milk formula contained vitamin B12, Example 2 received less of the infant milk formula than Example 1, and Example 2 received in lieu of the infant milk formula more of the breast milk from the hypothyroid […]. Example 1 also received an additional multivitamin nutritional supplement that included 2 mcg of vitamin B12.

Compound	physical, behavioral and social skills [1]	cerebrospinal folate levels [2]	hematological response: reticulocytes [3]
Nc1nc2c(c(=O)[nH]1)N(C=O)C(CNc1ccc(C(=O)N[C@@H](CCC(=O)O)C(=O)O)cc1)CN2 (stereo partly drawn) [folinic acid, 6(R,S)-5-formyltetrahydrofolate]	showed improvement	approximately 88	
cobalamin [vitamin B12]			moving from below normal to normal
